What was measured:
[1] = target: HDAC1 (Homo sapiens, UniProt Q13547); experiment: HDAC1 protein level in breast cancer cell lines, Western blot; type: cell-based; conditions: MDA-MB-468 cells, 14 h
Procedure: FIG. 3A: Western blot showing HDAC protein levels in MDA-MB-468 cells treated with the indicated concentration of XZ9002 for 14 h. FIG. 3B: pretreatment with 1 μM MG132, or 10 μM VHL032 for 1 h blocked the degradation of HDAC3 by XZ9002 {125 nM}. […] NC: XZ9002-NC. FIG. 3C: time-dependent experiment in MDA-MB-468 cells after treatment with 125 nM XZ9002 at the indicated time points. FIG. 3D: MDA-MB-468 cells were incubated with 125 nM of XZ9002 for 14 h followed by drug washout, and incubation of the cells in drug-free medium for an additional time. Data are presented as representative figures of two independent experiments.
The culture of the triple-negative breast cancer cell line MDA-MB-468 and the ER+ breast cancer cell line T47D was exposed to vehicle control (DMSO) and the indicated compounds at specified concentrations for 14 h. Cells were lysed for WB with antibodies against the indicated proteins. Antibodies against acetylated histones at specific sites (H3K27 and H4K5) and acetyl-lysine were used to assess levels of histone acetylation. Levels of HDAC3 were normalized against that of tubulin and % of HDAC3 protein levels in cells treated with the indicated compounds relative to that in DMSO control is shown.
Cell lines were obtained from ATCC and subsequently authenticated. […]

[2] = target: HDAC2 (Homo sapiens, UniProt Q92769); experiment: In vitro HDAC activity assay (HDAC-Glo I/II), HDAC2; type: biochemical; set-up: purchased BPS Bioscience 50002; conditions: average of three independent assays ± standard deviation
Sequence of HDAC2 (Q92769 whole entry, the tested form may be a part): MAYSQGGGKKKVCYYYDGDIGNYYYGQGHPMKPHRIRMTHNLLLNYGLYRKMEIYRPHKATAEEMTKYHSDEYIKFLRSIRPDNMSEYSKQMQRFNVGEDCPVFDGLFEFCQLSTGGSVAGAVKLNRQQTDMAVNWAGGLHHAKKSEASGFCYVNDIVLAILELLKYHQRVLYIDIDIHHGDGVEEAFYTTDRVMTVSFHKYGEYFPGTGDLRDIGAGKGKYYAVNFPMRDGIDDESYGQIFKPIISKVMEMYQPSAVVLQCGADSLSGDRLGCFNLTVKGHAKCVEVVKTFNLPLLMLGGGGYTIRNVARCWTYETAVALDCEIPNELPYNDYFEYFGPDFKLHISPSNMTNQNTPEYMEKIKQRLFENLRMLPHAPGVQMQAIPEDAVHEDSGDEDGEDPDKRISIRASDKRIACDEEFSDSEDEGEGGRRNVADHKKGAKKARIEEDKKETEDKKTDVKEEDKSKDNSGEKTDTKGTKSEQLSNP
Procedure: Purified HDAC1, HDAC2, and HDAC3 (in complex with the deacetylase activation domain of the human NCOR2 (amino acids 395-498)) were obtained from Enzo Life Sciences (HDAC1, catalog # BML-SE456-0050) and BPS Bioscience (HDAC2, catalog #50002 and HDAC3, catalog #50003), respectively. The enzyme activities were tested using the HDAC-Glo I/II reagents (Promega) according to a protocol provided by the manufacturer.

[3] = target: HDAC3 (Homo sapiens, UniProt O15379); experiment: HDAC3 degradation in breast cancer cell lines, Western blot; type: cell-based; set-up: endogenous in cells; host or cells: MDA-MB-468, T47D, MCF7; conditions: MDA-MB-468 cells
Sequence of HDAC3 (O15379 whole entry): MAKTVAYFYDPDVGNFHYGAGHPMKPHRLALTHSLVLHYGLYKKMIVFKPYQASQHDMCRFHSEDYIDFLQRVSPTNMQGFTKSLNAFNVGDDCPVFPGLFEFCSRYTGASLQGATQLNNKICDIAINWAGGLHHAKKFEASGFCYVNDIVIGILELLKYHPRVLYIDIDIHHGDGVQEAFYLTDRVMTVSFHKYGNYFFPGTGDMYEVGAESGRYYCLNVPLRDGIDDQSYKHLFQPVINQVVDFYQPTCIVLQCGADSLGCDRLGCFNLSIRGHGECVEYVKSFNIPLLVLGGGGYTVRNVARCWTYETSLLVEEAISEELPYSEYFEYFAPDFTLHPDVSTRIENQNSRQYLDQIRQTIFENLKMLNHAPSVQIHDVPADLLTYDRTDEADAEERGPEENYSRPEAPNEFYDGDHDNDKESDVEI
Sequence of HDAC3 (Q9Y618 395-498 partner limits assumed): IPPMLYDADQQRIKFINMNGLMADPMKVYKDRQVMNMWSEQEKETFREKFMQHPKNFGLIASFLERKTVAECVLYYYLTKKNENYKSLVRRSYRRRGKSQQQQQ
From the text: Data are presented as representative figures of two independent experiments.
Cells were lysed for WB with antibodies against the indicated proteins. Antibodies against acetylated histones at specific sites (H3K27 and H4K5) and acetyl-lysine were used to assess levels of histone acetylation.
Cells were lysed for WB. […] The indicated BC cell lines were exposed to DMSO, XZ9002, or XZ9002-NC at the indicated concentrations. Colonies were fixed and stained.
Cell lines were obtained from ATCC and subsequently authenticated. Cells were cultured with DMEM supplemented with 10% bovine calf serum, penicillin to 10 units/mL, and streptomycin to 10 μg/mL. For viability assays, 5,000 cells/well were seeded in 96-well plates. […] For colony formation assay, cells (˜1,000 cells/well) were seeded in a 24-well plate in quadruplicates. […] Medium was replaced with freshly prepared medium containing DMSO, XZ9002 or XZ9002-NC every five days until visible colonies appeared, typically in 15 to 20 days after initial cell seeding. Cells were fixed with 4% paraformaldehyde for 15 min and stained with 2% methylene blue in 20% ethanol for 30 min to 1 h. The cells were washed twice with distilled water and dried in air. For western blotting, cell cultures were exposed to compounds as indicated in relevant figures. Medium was removed from culture plate, and 1 x passive lysis buffer was then added, the plates were frozen at −80° C. overnight and thawed at room temperature. The total cell lysates were mixed with a one fifth volume of 6x SDS sample buffer, heated at 95° C. for 5 min and cooled on ice. The lysates were cleared by centrifugation and then subjected to SDS-PAGE and western blotting essentially as described.

Sequence of HDAC1 (Q13547 whole entry): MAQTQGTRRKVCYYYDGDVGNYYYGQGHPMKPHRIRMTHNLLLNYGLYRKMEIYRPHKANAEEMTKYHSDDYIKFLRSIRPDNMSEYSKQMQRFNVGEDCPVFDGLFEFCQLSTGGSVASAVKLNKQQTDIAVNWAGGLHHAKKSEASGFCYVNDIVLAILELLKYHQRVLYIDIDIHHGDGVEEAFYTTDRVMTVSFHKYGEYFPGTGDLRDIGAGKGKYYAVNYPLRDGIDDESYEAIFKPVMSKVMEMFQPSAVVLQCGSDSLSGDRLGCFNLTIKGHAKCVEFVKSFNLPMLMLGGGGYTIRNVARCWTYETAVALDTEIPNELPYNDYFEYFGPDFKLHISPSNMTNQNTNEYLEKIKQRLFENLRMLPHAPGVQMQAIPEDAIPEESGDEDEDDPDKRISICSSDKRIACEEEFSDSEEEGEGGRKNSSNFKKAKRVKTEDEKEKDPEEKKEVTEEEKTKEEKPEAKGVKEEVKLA

CCCNNC(=O)c1ccc(-c2ccc(NC(=O)CCCCCCC(=O)N[C@H](C(=O)N3C[C@H](O)C[C@H]3C(=O)N[C@@H](C)c3ccc(-c4scnc4C)cc3)C(C)(C)C)cc2)cc1 [XZ9002, N^1—((S)-1-((2S,4R)-4-hydroxy-2-(((S)-1-(4-(4-methylthiazol-5-yl)phenyl)ethyl)carbamoyl)pyrrolidin-1-yl)-3,3-dimethyl-1-oxobutan-2-yl)-N^5-(4′-(2-propylhydrazine-1-carbonyl)-[1,1′-biphenyl]-4-yl)octanediamide]
change in HDAC1 protein level [1]: no significant changes | IC50 [2]: 1550 ± 70 nM | start of HDAC3 degradation ([3]; 125 nM): ≤ 2 h | time for HDAC3 to rebound to the steady level after washout ([3]; 125 nM for 14 h, then drug-free medium): more than 12 h | HDAC3 degraded ([3]; 125 nM, 8 h): 70% | DC50 ([3]; 14 h treatment, read-out: HDAC3 DC50 (the concentration for 50% protein degradation)): 42 nM | HDAC3 degradation after pre-incubation with proteasome inhibitor MG132 ([3]; MG132 1 μM for 1 h, XZ9002 125 nM): blocked | HDAC3 degradation after pre-incubation with VHL ligand VH032 ([3]; VH032 10 μM for 1 h, XZ9002 125 nM): blocked

Source: patent publication US20230181746A1, “BENZOYLHYDRAZIDE-DERIVED HDAC DEGRADERS AS THERAPEUTICS FOR TREATING CANCER AND OTHER HUMAN DISEASES” (University of Florida Research Foundation, Inc., priority 2020, published 2023)
